Reference: publication PMC8026324, “In Vitro Antiplasmodial, Heme Polymerization, and Cytotoxicity of Hydroxyxanthone Derivatives” (Journal of Tropical Medicine, 2021)
≈ marks a conversion by molar mass, not a printed value.

How the values were obtained:
[1] = system: Plasmodium falciparum FCR-3 (chloroquine-resistant strain); assay: In vitro antiplasmodial activity assay, microscopic method, strain FCR-3; format: cell-based
Procedure, shortened: (§1)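 Sorbitol-synchronized ring-stage parasites at 1% parasitemia, 2% haematocrit in RPMI with 10% human O serum, exposed to compound dilutions in triplicate for 72 h at 37 °C. Parasitemia counted on Giemsa smears (≥1,000 erythrocytes); IC50 from growth inhibition by probit analysis.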

[2] = system: Plasmodium falciparum 3D-7 (chloroquine-sensitive strain); assay: In vitro antiplasmodial activity assay, microscopic method, strain 3D-7; format: cell-based
Procedure, shortened: as §1

[3] = system: Hela; design: method as in earlier work; conditions: cited from earlier work
[4] = system: Plasmodium falciparum 3D-7; assay: Flow cytometry method (SYBR green I / CD235A-PE); format: cell-based; conditions: 72 hours incubation
Procedure: The Plasmodium falciparum strains of 3D-7 were used in this method. The plasmodium synchronized to obtain the ring stage by adding 5% of D-sorbitol. Plasmodium with 1% parasitemia was cultured in a 96-well microplate. The testing compounds were added in duplicate and incubated at 37°C for 72 hours. The samples were centrifuged with a speed of 1000 rpm for 10 minutes and washed twice in 100 μL of phosphate-buffered saline (PBS). Samples were incubated with 50 μL of 1 : 1000 SYBR green I and 20μL of CD235A-PE for 15 minutes at room temperature. Cells were washed and resuspended in PBS. Data were obtained using a FACSCalibur with the acquisition of 1,00,000 events per sample. Initial gating was done with uninfected and unstained erythrocytes to account for erythrocyte autofluorescence. The control plasmodium-infected erythrocyte was referred as 100% growth to calculate the percentage of growth inhibition after treated with testing compound.

[5] = system: MCF-7; design: method as in earlier work; conditions: cited from earlier work
[6] = system: WIDR; design: method as in earlier work; conditions: cited from earlier work
[7] = system: formation of β-hematin (heme polymerization); assay: In vitro heme polymerization inhibitory activity (HPIA) assay; format: biochemical
Procedure: The heme polymerization inhibitory activity (HPIA) was conducted according to Basilico et al.'s modified method. The 100 μL of 1 mM hematin in 0.2 M NaOH was added into a microtube. […] Distilled water was used as a negative control. The 50 μL solution of glacial acetic acid (pH 2.6) was added into the microtube to initiate the polymerization reaction and incubated at a temperature of 37°C for 24 hours. Microtubes were centrifuged at 8000 rpm for 10 minutes and the supernatant was discarded and then washed three times using the 200 μL dimethyl sulfoxide (DMSO).Then, the deposition of the hematin crystal was dissolved with 200 μL of 0.1 M NaOH and 100 μL of solution was added into the 96-well microplate.
Absorbance was read using ELISA reader at λ 405 nm. A standard curve was made to illustrate the relationship between the concentration of hematin and its absorbance. The various concentrations of hematin (250; 125; 62.5; 31.25; 15.6; 7.8; and […]) were used to make the standard curve. The heme polymerization inhibition was expressed as IC50, which is the concentration of testing compounds that can inhibit 50% of the formation of β-hematin. The IC50 value was calculated by probit analysis using SPSS software (IBM Corp., Chicago).

## O=c1c2c(O)cccc2oc2cc(O)cc(O)c12 [HX1, 1,6,8-trihydroxyxanthone]
[1]; Plasmodium falciparum, FCR3, 6.39 μM, read-out: Growth inhibition of P. falciparum Strain FCR-3
  inhibition at 6.39 µM: 50.9 ± 2.31%
[1]; Plasmodium falciparum, FCR3, 12.8 μM, read-out: Growth inhibition of P. falciparum Strain FCR-3
  inhibition at 12.8 µM: 55.2 ± 3.59%
[1]; Plasmodium falciparum, FCR3, 25.59 μM, read-out: Growth inhibition of P. falciparum Strain FCR-3
  inhibition at 25.59 µM: 60.2 ± 2.74%
[1]; Plasmodium falciparum, FCR3, 51.19 μM, read-out: Growth inhibition of P. falciparum Strain FCR-3
  inhibition at 51.19 µM: 64.4 ± 0.671%
[1]; Plasmodium falciparum, FCR3, 102.38 μM, read-out: Growth inhibition of P. falciparum Strain FCR-3
  inhibition at 102.38 µM: 73.7 ± 4.28%
[1]; Plasmodium falciparum, FCR3, 72 hours incubation, microscopic method, read-out: IC50 on P. falciparum FCR-3
  IC50: 6.76 ± 2.38 µM
[1]; category by IC50
  antiplasmodial activity category on P. falciparum FCR-3: good (good (IC50 1–20 μM))
[2]; Plasmodium falciparum, 6.39 μM, read-out: Growth inhibition of P. falciparum Strain 3D-7
  inhibition at 6.39 µM: 47.4 ± 5.86%
[2]; Plasmodium falciparum, 12.8 μM, read-out: Growth inhibition of P. falciparum Strain 3D-7
  inhibition at 12.8 µM: 61.5 ± 0.71%
[2]; Plasmodium falciparum, 25.59 μM, read-out: Growth inhibition of P. falciparum Strain 3D-7
  inhibition at 25.59 µM: 64.7 ± 0.861%
[2]; Plasmodium falciparum, 51.19 μM, read-out: Growth inhibition of P. falciparum Strain 3D-7
  inhibition at 51.19 µM: 69 ± 0.888%
[2]; Plasmodium falciparum, 102.38 μM, read-out: Growth inhibition of P. falciparum Strain 3D-7
  inhibition at 102.38 µM: 75.86 ± 0.471%
[2]; Plasmodium falciparum, 72 hours incubation, microscopic method, read-out: IC50 on P. falciparum 3D-7
  IC50: 6.1 ± 2.01 µM
[2]; category by IC50
  antiplasmodial activity category on P. falciparum 3D-7: good (good (IC50 1–20 μM))
[3]
  cytotoxicity on Hela (in words): weak
[3]; in vitro cytotoxicity
  IC50 on Hela cell line: 67.7 µg/mL (≈ 277 µM)
[4]; 102.38 μM
  inhibition activity of P. falciparum 3D-7 growth (flow cytometry): showed inhibition activity
[4]; Plasmodium falciparum, 204.75 μM, read-out: inhibition activity of P. falciparum 3D-7 growth (flow cytometry)
  inhibition at 204.75 µM: > 90%
[5]
  cytotoxicity on MCF-7 (in words): weak
[5]; in vitro cytotoxicity
  IC50 on MCF-7 cell line: 45 µg/mL (≈ 184 µM)
[6]
  cytotoxicity on WIDR (in words): weak
[6]; in vitro cytotoxicity
  IC50 on WIDR cell line: 61.9 µg/mL (≈ 253 µM)
[7]; 24 hours, 37°C, glacial acetic acid pH 2.6
  IC50: 2850 µM
[7]; compound 1.269 mM
  Inhibition of β-hematin: 33.901%
  β-Hematin formed: 72.500 mM
[7]; compound 2.580 mM
  Inhibition of β-hematin: 49.149%
  β-Hematin formed: 55.776 mM
[7]; compound 5.119 mM
  Inhibition of β-hematin: 50.359%
  β-Hematin formed: 54.448 mM
[7]; compound 10.238 mM
  Inhibition of β-hematin: 86.893%
  β-Hematin formed: 14.376 mM
[7]; compound 20.475 mM
  Inhibition of β-hematin: 91.171%
  β-Hematin formed: 9.684 mM
